Assays:
[1] = tested on: human-derived breast cancer cell line MFM223; assay: Anti-tumor effect of compound A in nude mice with subcutaneously transplanted human breast cancer cell line MFM223 (tumor volume); format: in vivo, nude mice (BALB/cAJcl-nu/nu, female)
Protocol: (§1) Four nude mice (BALB/cAJcl-nu/nu, female, CLEA Japan, Inc.) per group were used to evaluate an anti-tumor effect when compound A was administered.
A human-derived breast cancer cell line MFM223 (ECACC) was subjected to preparatory conditioning. The MFM223 cells were suspended at a concentration of 2×10^8 cells/mL in HBSS (Wako Pure Chemical Industries, Ltd.). To the resulting suspension was added an equal volume of Matrigel™ matrix (Becton, Dickinson and Company, Japan), and the mixture was mixed sufficiently. Then, 0.1 mL of the mixture was subcutaneously transplanted into the right flank of each nude mouse (CAnN.Cg-Foxnlnu/Crlalj, female, Charles River Laboratories International, Inc.). During rearing, β-estradiol (Wako Pure Chemical Industries, Ltd.) prepared at a final concentration of 2.5 μg/mL in drinking water was orally administered. 46 Days after the transplantation, a tumor formed was resected and cut into small pieces. HBSS containing Type I collagenase (SIGMA) at a final concentration of 380 units/mL and Deoxyribonuclease I (SIGMA) at a final concentration of 160 K units/mL was added thereto, and the mixture was stirred at 37° C. After the mixture was made to pass through a 100-μm cell strainer (Falcon®) and centrifuged to collect the cells, those cells were cultured in 10% bovine serum-containing EMEM culture medium.
The cells as so obtained were suspended at a concentration of 1.4×10^8 cells/mL in 10% bovine serum-containing EMEM culture medium (Wako Pure Chemical Industries, Ltd.). To the resulting suspension was added an equal volume of Matrigel™ matrix (Becton, Dickinson and Company, Japan), and the resulting mixture was mixed sufficiently. Next, 0.1 mL of the mixture was subcutaneously transplanted into the right flank of each mouse, and then, the anti-tumor effect was evaluated.
20 Days after the transplantation, an electronic digital caliper (Digimatic™ Caliper; Mitutoyo Corporation) was used to measure the long and short diameters of a tumor of interest. The mice were grouped such that each group had substantially the same average of the tumor volumes. Note that each tumor volume was calculated by using the following equation:
Tumor Volume (mm^3)=Long Diameter (mm)×Short Diameter (mm)×Short Diameter (mm)/2.
(§2) Compound A as obtained in Production Example 1 was dissolved at a concentration of 0.625 mg/mL, or 2.5 mg/mL in purified water.
(§3) Then, the solution was orally administered at a dose of 20 mL/kg, i.e., 12.5 mg/kg or 50 mg/kg, once a day for 12 days to the mice of each group. Purified water was administered at 20 mL/kg to the control group.
(§4) On day 3, 7, and 12 after initiation of the administration, the tumor volume of each mouse was measured. In addition, Table 2 and FIG. 2 show changes in body weight over time.

[2] = Changes in body weight over time in MFM223 tumor-bearing nude mice; format: in vivo, nude mice (BALB/cAJcl-nu/nu, female)
Protocol: as §1, §2, §3, §4

[3] = 12.5 mg/kg orally once a day, Day 3
[4] = 12.5 mg/kg orally once a day, Day 7
[5] = 12.5 mg/kg orally once a day, Day 12
[6] = 50 mg/kg orally once a day, Day 3
[7] = 50 mg/kg orally once a day, Day 7
[8] = 50 mg/kg orally once a day, Day 12

## CNC(=O)n1ccc2cc(Oc3ccnc(NC(=O)c4ccc(C5CCN(CCO)CC5)cc4)c3)c(OCCOC)cc21 [Compound A, 5-((2-(4-(1-(2-hydroxyethyl)piperidin-4-yl)benzamide)pyridin-4-yl)oxy)-6-(2-methoxyethoxy)-N-methyl-1H-indole-1-carboxamide 1.5 succinate]
[1]; 12.5 mg/kg orally once a day, Day 0 (at grouping, before treatment effect)
  Changes in tumor volume over time: 151.6 mm^3
[1]; [3]
  Changes in tumor volume over time: 139.0 mm^3
[1]; [4]
  Changes in tumor volume over time: 143.8 mm^3
[1]; [5]
  Changes in tumor volume over time: 148.2 mm^3
[1]; 50 mg/kg orally once a day, Day 0 (at grouping, before treatment effect)
  Changes in tumor volume over time: 151.6 mm^3
[1]; [6]
  Changes in tumor volume over time: 112.8 mm^3
[1]; [7]
  Changes in tumor volume over time: 99.3 mm^3
[1]; [8]
  Changes in tumor volume over time: 87.2 mm^3
[2]; 12.5 mg/kg orally once a day, Day 0
  Changes in body weight over time: 21.1 g
[2]; [3]
  Changes in body weight over time: 21.4 g
[2]; [4]
  Changes in body weight over time: 22.6 g
[2]; [5]
  Changes in body weight over time: 23.2 g
[2]; 50 mg/kg orally once a day, Day 0
  Changes in body weight over time: 21.5 g
[2]; [6]
  Changes in body weight over time: 22.8 g
[2]; [7]
  Changes in body weight over time: 23.8 g
[2]; [8]
  Changes in body weight over time: 24.0 g

Source: patent US20180303817A1, “THERAPEUTIC AGENT FOR BREAST CANCER” (Eisai R&D Management Co., Ltd., priority 2015, published 2018)
